According to US20260092074A1, “Annelated Pyridines as Steroidogenesis Inhibitors, Preparation Method and Use Thereof” (Guangzhou Vinnocent Pharmaceutical Limited, priority 2022, published 2026):

What was measured:
human CYP11B2 = molecular target: T1, human CYP11B2 (Homo sapiens, UniProt P19099); assay: Inhibition of hCYP11B2 in transfected V79 cells; format: cell-based; details: hamster V79 cells expressing human CYP11B2; substrate 11-deoxycorticosterone 200 nM
T1 construct: expressed in transfected cells
T1 sequence (P19099 25-503): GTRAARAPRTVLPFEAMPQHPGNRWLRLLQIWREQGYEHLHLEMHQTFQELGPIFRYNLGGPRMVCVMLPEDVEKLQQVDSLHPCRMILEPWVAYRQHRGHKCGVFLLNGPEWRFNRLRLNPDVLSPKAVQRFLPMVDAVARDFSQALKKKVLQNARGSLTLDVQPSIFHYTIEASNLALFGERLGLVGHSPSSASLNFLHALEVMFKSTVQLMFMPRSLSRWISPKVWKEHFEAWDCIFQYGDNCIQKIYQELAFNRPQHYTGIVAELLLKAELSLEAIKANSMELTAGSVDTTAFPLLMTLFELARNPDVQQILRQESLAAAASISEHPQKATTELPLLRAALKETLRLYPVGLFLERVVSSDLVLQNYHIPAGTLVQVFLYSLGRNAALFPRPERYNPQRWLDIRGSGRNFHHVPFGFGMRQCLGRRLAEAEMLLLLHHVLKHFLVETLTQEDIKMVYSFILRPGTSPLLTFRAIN
Description: (§1) Genes of human CYP11B2 and rat NADPH-P450 reductase were transfected into hamster V79 cells using a lentivirus vector, and stably-expressing cell lines were selected by taking advantages of the associated puromycin-resistance gene. Cultured cells were diluted and seeded in a 96-well plate with an amount of approximately 10,000 per well. After pre-incubation with suitable concentrations of the test compounds for 2 hours, 11-deoxycorticosterone of 200 nM was added as the substrate to initiate the catalytic reaction. After further incubation for 30 minutes, it was quenched with ethyl acetate. Subsequently, the substrate and product(s) were quantified using LC-MS/MS or HPLC at 260 nm, and the IC50 values were calculated according to inhibitory percentage.

human CYP11B1 = molecular target: T2, human CYP11B1 (Homo sapiens, UniProt P15538); assay: Inhibition of hCYP11B1 in transfected V79 cells; format: cell-based; details: hamster V79 cells expressing human CYP11B1; substrate 11-deoxycortisol 200 nM
T2 construct: expressed in transfected cells
T2 sequence (P15538 25-503): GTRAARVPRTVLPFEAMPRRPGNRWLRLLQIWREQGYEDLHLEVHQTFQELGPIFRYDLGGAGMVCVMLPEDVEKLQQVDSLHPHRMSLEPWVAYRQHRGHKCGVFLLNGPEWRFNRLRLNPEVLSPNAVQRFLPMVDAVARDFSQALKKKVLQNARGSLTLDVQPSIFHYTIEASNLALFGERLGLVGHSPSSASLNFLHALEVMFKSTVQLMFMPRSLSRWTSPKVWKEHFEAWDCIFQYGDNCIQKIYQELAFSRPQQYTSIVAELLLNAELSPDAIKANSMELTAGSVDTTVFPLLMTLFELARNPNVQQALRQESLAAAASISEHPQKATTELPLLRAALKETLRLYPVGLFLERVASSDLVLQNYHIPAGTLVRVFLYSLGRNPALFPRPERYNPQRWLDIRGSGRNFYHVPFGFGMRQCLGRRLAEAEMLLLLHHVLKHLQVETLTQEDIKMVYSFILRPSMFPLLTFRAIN
Description: as §1, with “CYP11B1” for “CYP11B2”, “11-deoxycortisol” for “11-deoxycorticosterone”

SMILES | IC50 (human CYP11B2) [nM] | IC50 (human CYP11B1) [nM]
N#Cc1ccc(S(=O)(=O)N2CCSc3c(-c4cc5cc(C#N)ccc5o4)cncc32)cc1 [S42, 2-(4-((4-Cyanophenyl)sulfonyl)-3,4-dihydro-2H-pyrido[4,3-b][1,4]thiazin-8-yl)benzofuran-5-carbonitrile] | 0.3 | 24
N#CC12CC(c3cncc4c3OCCN4C(=O)C3CN(Cc4cccc(F)c4)C3)(C1)C2 [O133, 3-(4-(1-(3-Fluorobenzyl)azetidine-3-carbonyl)-3,4-dihydro-2H-pyrido[4,3-b][1,4]oxazin-8-yl)bicyclo[1.1.1]pentane-1-carbonitrile] | 55 | 4220
N#Cc1ccc(-c2cncc3c2SCCN3S(=O)(=O)C2CN(C(=O)c3ccc(F)cc3)C2)cc1 [S68, 4-(4-((1-(4-Fluorobenzoyl)azetidin-3-yl)sulfonyl)-3,4-dihydro-2H-pyrido[4,3-b][1,4]thiazin-8-yl)benzonitrile] | 0.8 | 22
N#Cc1ccc(-c2cncc3c2OCCN3C(=O)Cc2ccc(F)cc2)cc1 [O36, 4-(4-(2-(4-Fluorophenyl)acetyl)-3,4-dihydro-2H-pyrido[4,3-b][1,4]oxazin-8-yl)benzonitrile] | 1.8 | 262
COc1cccc(S(=O)(=O)N2CC(C(=O)N3CCOc4c(-c5ccc(C#N)cc5)cncc43)C2)c1 [O66, 4-(4-(1-((3-Methoxyphenyl)sulfonyl)azetidine-3-carbonyl)-3,4-dihydro-2H-pyrido[4,3-b][1, 4]oxazin-8-yl)benzonitrile] | 4.5 | 495
COc1ccc(S(=O)(=O)N2CCSc3c(-c4ccc(Cl)cc4)cncc32)cc1 [S28, 8-(4-Chlorophenyl)-4-((4-methoxyphenyl)sulfonyl)-3,4-dihydro-2H-pyrido[4,3-b][1,4]thia zine] | 0.2 | 1.8
N#Cc1ccc(-c2cncc3c2ccn3S(=O)(=O)c2cccc(C(F)(F)F)c2)cc1 [E5, 4-(1-((3-(Trifluoromethyl)phenyl)sulfonyl)-1H-pyrrolo[2,3-c]pyridin-4-yl)benzonitrile] | 0.3 | 0.6
N#Cc1ccc(S(=O)(=O)N2CCSc3c(-c4ccc5occc5c4)cncc32)cc1 [S44, 4-((8-(Benzofuran-5-yl)-2,3-dihydro-4H-pyrido[4,3-b][1,4]thiazin-4-yl)sulfonyl)benzonitrile] | 46 | 782
O=C(c1ccccc1F)N1CCc2c(-c3ccc4ncsc4c3)cncc21 [C58, (4-(benzo[d]thiazol-6-yl)-2,3-dihydro-1H-pyrrolo[2,3-c]pyridin-1-yl)(2-fluorophenyl)methanone] | 75 | 2640
COc1cccc(CN2CC(S(=O)(=O)N3CCSc4c(-c5ccc(C#N)cc5)cncc43)C2)c1 [S85, 4-(4-((1-(3-Methoxybenzyl)azetidin-3-yl)sulfonyl)-3,4-dihydro-2H-pyrido[4,3-b][1,4]thiazin-8-yl)benzonitrile] | 0.9 | 37
N#Cc1ccc(-c2cncc3c2SCCN3S(=O)(=O)c2cccnc2)cc1 [S25, 4-(4-(Pyridin-3-ylsulfonyl)-3,4-dihydro-2H-pyrido[4,3-b][1,4]thiazin-8-yl)benzonitrile] | 0.04 | 1.82
COc1ccc(S(=O)(=O)N2CCSc3c(-c4ccc(F)c(Cl)c4)cncc32)cc1 [S34, 8-(3-chloro-4-fluorophenyl)-4-((4-methoxyphenyl)sulfonyl)-3,4-dihydro-2H-pyrido[4,3-b][1,4]thiazine] | 0.17 | 13.4
N#Cc1ccc(-c2cncc3c2OCCN3S(=O)(=O)c2ccc(F)cc2)cc1 [O2, 4-(4-((4-Fluorophenyl)sulfonyl)-3,4-dihydro-2H-pyrido[4,3-b][1,4]oxazin-8-yl)benzonitrile] | 0.13 | 0.56
O=S(=O)(C1CC2(COC2)C1)N1CCSc2c(-c3cc4cc(Cl)ccc4o3)cncc21 [S66, 4-((2-Oxaspiro[3.3]heptan-6-yl)sulfonyl)-8-(5-chlorobenzofuran-2-yl)-3,4-dihydro-2H-pyrido[4,3-b][1,4]thiazine] | 3.8 | 587
N#Cc1ccc(S(=O)(=O)N2CCOc3c(-c4cc5cc(Cl)ccc5o4)cncc32)cc1 [O128, 4-((8-(5-Chlorobenzofuran-2-yl)-2,3-dihydro-4H-pyrido[4,3-b][1,4]oxazin-4-yl)sulfonyl)benzonitrile] | 3.3 | 256
N#Cc1ccc(-c2cncc3c2CCN3C(=O)Cc2ccc(C(F)(F)F)cc2)cc1 [C75, 4-(1-(2-(4-(Trifluoromethyl)phenyl)acetyl)-2,3-dihydro-1H-pyrrolo[2,3-c]pyridin-4-yl)benzonitrile] | 35 | 111
N#Cc1ccc(-c2cncc3c2SCCN3S(=O)(=O)C2CN(S(=O)(=O)c3cccc(F)c3)C2)cc1 [S75, 4-(4-((1-((3-Fluorophenyl)sulfonyl)azetidin-3-yl)sulfonyl)-3,4-dihydro-2H-pyrido[4,3-b][1,4]thiazin-8-yl)benzonitrile] | 0.7 | 12
COc1ccc(S(=O)(=O)N2CC(S(=O)(=O)N3CCOc4c(-c5ccc(C#N)cc5)cncc43)C2)cc1 [O118, 4-(4-((1-((4-Methoxyphenyl)sulfonyl)azetidin-3-yl)sulfonyl)-3,4-dihydro-2H-pyrido[4,3-b][1,4]oxazin-8-yl)benzonitrile] | 2.7 | 39
COc1ccc(CN2CC(S(=O)(=O)N3CCOc4c(-c5ccc(C#N)cc5)cncc43)C2)cc1 [O125, 4-(4-((1-(4-Methoxybenzyl)azetidin-3-yl)sulfonyl)-3,4-dihydro-2H-pyrido[4,3-b][1,4]oxazin-8-yl)benzonitrile] | 0.5 | 28
N#Cc1ccc(-c2cncc3c2CCN3C(=O)Cc2ccc(Cl)cc2)cc1 [C77, 4-(1-(2-(4-Chlorophenyl)acetyl)-2,3-dihydro-1H-pyrrolo[2,3-c]pyridin-4-yl)benzonitrile] | 8 | 376
N#Cc1ccc(-c2cncc3c2OCCN3C(=O)C2CN(S(=O)(=O)c3cccs3)C2)cc1 [O64, 4-(4-(1-(Thiophen-2-ylsulfonyl)azetidine-3-carbonyl)-3,4-dihydro-2H-pyrido[4,3-b][1,4]oxazin-8-yl)benzonitrile] | 0.5 | 63
N#Cc1ccc(-c2cncc3c2OCCN3C(=O)C2CN(S(=O)(=O)c3ccc(C#N)cc3)C2)cc1 [O69, 4-((3-(8-(4-Cyanophenyl)-3,4-dihydro-2H-pyrido[4,3-b][1,4]oxazine-4-carbonyl)azetidin-1-yl)sulfonyl)benzonitrile] | 2.1 | 57
N#Cc1ccc(-c2cncc3c2CCN3S(=O)(=O)c2ccc(Cl)nc2)cc1 [C5, 4-(1-((6-Chloropyridin-3-yl)sulfonyl)-2,3-dihydro-1H-pyrrolo[2,3-c]pyridin-4-yl)benzonitrile] | 0.4 | 1.1
N#Cc1ccc(-c2cncc3c2OCCN3C(=O)C2CN(C(=O)c3cccc(F)c3)C2)cc1 [O58, 4-(4-(1-(3-Fluorobenzoyl)azetidine-3-carbonyl)-3,4-dihydro-2H-pyrido[4,3-b][1,4]oxazin-8-yl)benzonitrile] | 1.9 | 132
N#Cc1ccc(-c2cncc3c2OCCN3C(=O)C2CN(Cc3cccc(F)c3)C2)cc1 [O78, 4-(4-(1-(3-Fluorobenzyl)azetidine-3-carbonyl)-3,4-dihydro-2H-pyrido[4,3-b][1,4]oxazin-8-yl)benzonitrile] | 2.1 | 183
